Reference: PMC9097471, “Development of Selective Phosphatidylinositol 5-Phosphate 4-Kinase γ Inhibitors with a Non-ATP-competitive, Allosteric Binding Mode” (Journal of Medicinal Chemistry, 2022)
≈ marks a conversion by molar mass, not a printed value. Where two headings read alike, the source gives them in different places.

Legend:
PI5P4Kβ = biological target: T1, PI5P4Kβ (Homo sapiens, UniProt P78356); parameters: method as in ref 23 (a number printed in a supplementary file, which may have a reference list of its own: not looked up in the article's list); conditions: KINOMEscan @ 10 μM; cited from earlier work
T1 sequence (P78356 1-416): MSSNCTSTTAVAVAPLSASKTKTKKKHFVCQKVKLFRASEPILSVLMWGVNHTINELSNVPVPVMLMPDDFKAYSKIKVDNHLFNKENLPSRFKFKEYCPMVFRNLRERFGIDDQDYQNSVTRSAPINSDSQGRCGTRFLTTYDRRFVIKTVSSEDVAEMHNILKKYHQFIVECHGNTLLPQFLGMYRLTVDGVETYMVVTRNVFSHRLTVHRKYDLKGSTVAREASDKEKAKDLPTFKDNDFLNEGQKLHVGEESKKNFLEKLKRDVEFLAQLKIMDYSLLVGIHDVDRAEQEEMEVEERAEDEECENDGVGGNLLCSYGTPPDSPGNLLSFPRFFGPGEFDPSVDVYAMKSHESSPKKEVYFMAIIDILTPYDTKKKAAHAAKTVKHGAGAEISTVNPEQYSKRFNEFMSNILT

PI5P4Kβ-WT = biological target: T2, PI5P4Kβ-WT (Homo sapiens, UniProt P78356); assay: ADP-Glo inhibition assay; conditions: for PI5P4Kβ pIC50: ADP-Glo
T2 sequence (P78356 1-416): T1 sequence (P78356 1-416)
Excerpt: (§2) To enable direct comparisons, Promega’s ADP-Glo reporter assay was developed using a mutant form of the kinase. […] To mitigate concerns about being misled by the use of the PI5P4Kγ+ construct and the possible introduction of PI5P4Kα activity into the molecules, our screening cascade included the measurement of ADP-Glo activity at PI5P4Kα-WT (and PI5P4Kβ-WT to fully understand emerging selectivity profiles).

PI5P4Kγ+ = biological target: T3, PI5P4Kγ+ (Homo sapiens, UniProt Q8TBX8, D138G/D197E/E133P/E135D/E153T/E196G/G136S/G139A/N195G/S132L/S134N); assay: ADP-Glo inhibition assay; format: biochemical; conditions: for IC50: ADP-Glo
T3 construct: GST (N, cleaved yes); made in house; host or cells: E. coli BL21(DE3), pGEX6P
T3 sequence (Q8TBX8 with tags, fused parts or gaps INS131LPN/S132D/E133S/S134Q/E135A/G136R/D138G/G139A/E153T/N195G/E196G/D197E): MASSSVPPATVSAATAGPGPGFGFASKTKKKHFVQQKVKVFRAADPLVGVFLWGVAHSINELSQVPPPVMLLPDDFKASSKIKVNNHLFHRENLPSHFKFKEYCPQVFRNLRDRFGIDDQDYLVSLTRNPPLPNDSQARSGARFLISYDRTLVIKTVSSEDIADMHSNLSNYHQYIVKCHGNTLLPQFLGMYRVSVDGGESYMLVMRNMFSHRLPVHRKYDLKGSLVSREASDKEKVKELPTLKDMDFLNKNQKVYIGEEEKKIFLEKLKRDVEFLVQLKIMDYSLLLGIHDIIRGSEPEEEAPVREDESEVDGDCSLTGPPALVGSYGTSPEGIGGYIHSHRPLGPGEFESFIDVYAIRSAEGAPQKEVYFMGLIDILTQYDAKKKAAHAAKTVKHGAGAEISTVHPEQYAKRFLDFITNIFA
Protocol: Recombinant mutant PI5P4Kγ+ was prepared essentially as described previously.[25] […] Cultures were induced with 0.4 mM IPTG and probe sonicated in the presence of protease inhibitors. The GST fusion protein of PI5P4Kγ+ was harvested by binding to glutathione sepharose beads (Cytiva) and cleaved in situ with 50U of PreScission protease (Cytiva) for 4 h at 4 °C. The cleaved protein was further purified by size-exclusion chromatography (AKTA Pure, Cytiva). The protein purity was confirmed by sodium dodecyl sulphate–polyacrylamide gel electrophoresis, and the concentration was determined by colorimetric assay (Bio-Rad).
(§1) Statistical analysis was performed using nonparametric testing in Prism 8 (GraphPad). Activity pIC50 values and in vivo binding pEC50 values were estimated using a 4-parameter fit (Dotmatics).

PI5P4Kα [1] = test system: PI5P4Kα; parameters: method as in ref 23 (a number printed in a supplementary file, which may have a reference list of its own: not looked up in the article's list); conditions: KINOMEscan @ 10 μM; cited from earlier work
PI5P4Kα-WT = biological target: T4, PI5P4Kα-WT (Homo sapiens, UniProt P48426); assay: ADP-Glo inhibition assay; conditions: for PI5P4Kα pIC50: ADP-Glo
T4 sequence (P48426 1-406): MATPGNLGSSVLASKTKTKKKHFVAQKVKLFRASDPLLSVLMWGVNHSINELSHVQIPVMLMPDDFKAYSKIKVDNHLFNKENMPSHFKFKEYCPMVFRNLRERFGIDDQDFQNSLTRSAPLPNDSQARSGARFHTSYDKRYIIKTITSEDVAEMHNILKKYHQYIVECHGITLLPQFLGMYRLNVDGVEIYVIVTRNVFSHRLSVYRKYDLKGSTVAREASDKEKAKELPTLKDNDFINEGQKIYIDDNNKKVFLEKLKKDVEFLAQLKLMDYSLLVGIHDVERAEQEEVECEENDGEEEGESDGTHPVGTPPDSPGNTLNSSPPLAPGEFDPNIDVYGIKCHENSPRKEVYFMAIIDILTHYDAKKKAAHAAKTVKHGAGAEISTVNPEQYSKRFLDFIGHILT
Excerpt: as §2

PI5P4Kγ-WT [2] = biological target: T5, PI5P4Kγ-WT (Homo sapiens, UniProt Q8TBX8); assay: InCell Pulse cellular target engagement (thermal stabilisation) in HEK293 cells; format: cell-based; conditions: InCell Pulse, new data
T5 sequence (Q8TBX8 1-421): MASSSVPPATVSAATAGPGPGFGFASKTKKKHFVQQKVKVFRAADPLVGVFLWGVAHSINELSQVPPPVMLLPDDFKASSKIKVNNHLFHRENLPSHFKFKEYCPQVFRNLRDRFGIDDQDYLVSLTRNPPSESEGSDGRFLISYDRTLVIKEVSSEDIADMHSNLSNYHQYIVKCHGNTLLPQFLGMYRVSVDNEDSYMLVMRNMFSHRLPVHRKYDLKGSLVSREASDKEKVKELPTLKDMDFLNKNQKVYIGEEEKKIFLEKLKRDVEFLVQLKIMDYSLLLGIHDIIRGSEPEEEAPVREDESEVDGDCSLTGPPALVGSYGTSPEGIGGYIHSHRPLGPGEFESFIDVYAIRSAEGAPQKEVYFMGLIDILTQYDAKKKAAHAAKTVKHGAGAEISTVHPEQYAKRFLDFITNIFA
Protocol: The binding of compounds to PI5P4Kγ in intact cells was assessed using an InCell Pulse thermal stabilisation assay (DiscoverX). […] The plate was then incubated for 60 min in the dark prior to luminescence reading using a Pherastar FSX plate reader (BMG Labtech).
as §1

PI5P4Kγ [3] = test system: PI5P4Kγ; parameters: method as in ref 30 (1), ref 23 (2); conditions: 32P-ATP/PI5P incorporation; ref 30 (1), ref 23 (2); cited from earlier work
PI5P4Kα [4] = conditions: bioluminescence assay; cited from earlier work
Plasma protein binding = format: in vitro ADME; conditions: Mouse plasma protein binding; read-out: mPPB (converted)
Protocol: Plasma protein binding analysis was performed by Charles River Laboratories Inc. (ADME-SOP-90). Briefly, compounds in DMSO (10 µM, 0.5% DMSO final) were added to mouse plasma and dialysed against buffer for 4 hours at 37 °C. The compound concentration in each of the plasma and buffer compartments was determined by mass spectrometry and used to calculate the percentage compound bound. […]

[5] = Liver microsomal stability; format: in vitro ADME; conditions: liver microsomes; Human liver microsomal hepatic stability; read-out: HLM t1/2
Kinetic solubility = format: physicochemical; conditions: PBS buffer, PBS pH 7.4
Protocol: Kinetic solubility analysis was performed by Charles River Laboratories Inc. (ADME-SOP-01). Compound in
DMSO at 10 mM was diluted to 200 µM in both DMSO and buffer (0.1 M PBS, pH 7.4, 2% DMSO final), and
an aliquot of the 200 µM DMSO solution was diluted to 10 µM, and all dilutions were equilibrated for 2 hours. […]
Compound 9 was purchased from Am binter (Amb16536894) and was determined by UPLC to have purity >95%.
All other compounds were synthesised as described below , and all tested compounds have purity >95% by UPLC

Caco-2 cell permeability = format: in vitro ADME; conditions: human; for Papp A→B at 1 h, 10 µM: Caco-2, apical-to-basolateral
Protocol: Permeability: bi-directional Caco-2 cell permeability was performed by Charles River Laboratories Inc. (ADME-SOP-49). Briefly, compounds were administered at 10 µM (1% DMSO final) to the apical or basolateral side of a polarised Caco-2 cell monolayer, then incubated at 37 °C for 60 minutes before appearance on the opposite side of the monolayer was determined by mass spectrometry. The efflux ratio (ER) is calculated from the ratio of B-A […]

PI5P4Kγ-WT [6] = biological target: T5, PI5P4Kγ-WT; assay: Thermal shift assay; conditions: read-out: ΔTm PI5P4Kγ WT, thermal shift, compound 63 μM
[7] = Chromatographic LogD (HPLC method); format: physicochemical; conditions: pH 7.4, read-out: mchrom log D7.4
Protocol: 5-100% gradient of MeCN in 50mM NH4OAc in H 2O adjusted to pH 7.4. […]

PI5P4Kγ [8] = biological target: PI5P4Kγ; parameters: method as in Rosenthal 2011, Davis 2011, Karaman 2008, Klaeger 2017; conditions: public kinase panel data; ref Rosenthal 2011, Davis 2011, Karaman 2008, Klaeger 2017; cited from earlier work
[9] = new data, read-out: PI5P4Kγ+ IC50
[10] = mutant PI5P4Kγ+ construct, read-out: PI5P4Kγ+ pIC50 (converted)

Compound	IC50 (PI5P4Kα-WT) [µM]	fraction unbound at 4 h, 10 µM (Plasma protein binding)	PI5P4Kβ pIC50 (PI5P4Kβ-WT)	half-life at 1 µM [5] [min]	solubility at 2 h (Kinetic solubility) [µM]	IC50 (PI5P4Kγ+; [10]) [µM]	PI5P4Kα pIC50 (PI5P4Kα-WT)	chromatographic logD [7]	PI5P4Kγ pKD (PI5P4Kγ [8])	also measured
Cn1nnnc1Sc1ncnc2scc(-c3cccc(S(C)(=O)=O)c3)c12 [Compound 2, NCT-504]	2	–	–	–	–	–	–	–	–	PI5P4Kβ % inh (PI5P4Kβ): <65% inh @ 10 uM (KINONMEscan); IC50 (PI5P4Kβ-WT): > 25 µM; IC50 (PI5P4Kγ+; [9]): > 50 µM; PI5P4Kα % inh (PI5P4Kα [1]): <35% inh @ 10 uM (KINONMEscan); IC50 (PI5P4Kγ-WT [2]): > 50 µM; IC50 (PI5P4Kγ [3]): 16 µM
CN(C)C/C=C/C(=O)Nc1ccc(C(=O)Nc2cccc(Nc3cc(-c4c[nH]c5ccccc45)ncn3)c2)cc1 [Compound 3, THZ-P1-2]	–	–	–	–	–	–	–	–	–	IC50 (PI5P4Kα [4]): 0.95 µM; IC50 (PI5P4Kγ+; [9]): 0.13 µM; IC50 (PI5P4Kγ-WT [2]): 1.3 µM
Cc1ccc(-n2ccc3c(Nc4cccc(NC(=O)c5ccc(NC(=O)/C=C/CN(C)C)cc5)c4)ncnc32)cc1 [Compound 4]	–	–	–	–	–	–	–	–	–	IC50 (PI5P4Kα [4]): 1.3 µM
FC(F)(F)c1ccccc1-c1nc(NCc2ccccn2)c2ccccc2n1 [Compound 14]	–	< 0.01	<4.6	31	9 (≈ 3.42 µg/mL)	3.16	<4.3	–	–	Papp A→B at 1 h, 10 µM (Caco-2 cell permeability): 85 ×10⁻⁶ cm/s; ΔTm at 63 µM (PI5P4Kγ-WT [6]): 6.3 °C
CC(C)c1ccccc1-c1nc(NCc2ccccn2)c2ccccc2n1 [Compound 22]	–	< 0.01	<4.6	37	< 5	–	<4.3	5.7	–	–
Cc1cnc(-c2ccccc2C(F)(F)F)nc1NCc1ccccn1 [Compound 35]	–	0.03	<4.6	41	113 (≈ 38.9 µg/mL)	10	<4.3	4.2	–	Papp A→B at 1 h, 10 µM (Caco-2 cell permeability): 106 ×10⁻⁶ cm/s; efflux ratio at 1 h, 10 µM (Caco-2 cell permeability; Caco-2 efflux ratio (B-A/A-B), read-out: ER): 0.5; ΔTm at 63 µM (PI5P4Kγ-WT [6]): 3.9 °C; PI5P4Kγ+ LE (PI5P4Kγ+; ligand efficiency from PI5P4Kγ+ pIC50): 0.28
FC(F)(F)c1ccccc1-c1nc(NCc2ccccn2)c2cccnc2n1 [Compound 38]	–	0.01	<4.6	100	6 (≈ 2.29 µg/mL)	–	<4.3	3.2	–	–
Cc1nc(CN(C)c2ncnc3ccc(-c4ccc5c(c4)OCO5)cc23)cs1 [ML106, reference compound]	> 50.1	–	–	–	–	10	–	–	6.4	–
Cc1nc(CNc2ncnc3ccc(-c4ccc5c(c4)OCO5)cc23)cs1 [ML197, reference compound]	> 50.1	–	–	–	–	3.98	–	–	6.6	–
CC(=O)c1c(C)c2cnc(Nc3ccc(N4CCNCC4)cn3)nc2n(C2CCCC2)c1=O [Palbociclib, reference compound]	–	–	–	–	–	–	–	–	5.8	IC50 (PI5P4Kβ-WT): > 25.1 µM
